In brackets after ≈: the same amount, converted by molar mass. Read-outs that look alike come from different tables or passages of the source. One block for each molecule: values may come before it. Non-standard residues stand in square brackets, D forms with d. Residues, ends and D or L forms follow the SMILES beside them. No end group written: not given here. Ahx = NCCCCCC(=O)O
What was measured:
[1] = system: C. neoformans var. grubii H99; assay: microbe, parasite or virus in culture; type: cell-based, Cryptococcus neoformans var. grubii
Description: (§1) The in vitro susceptibility of chimeric, precursor peptides and FLC was evaluated by determining the minimal inhibitory concentration (MIC) on the basis of the broth microdilution method, according to document M27-A3 of the Clinical Laboratory Standards Institute (CLSI). It was diluted in RPMI-1640 medium (Sigma-Aldrich) at concentrations ranging from 1.6 to 100 μg/mL. The initial suspension (0.5 McFarland) was mixed into saline solution. Subsequently, a 1:50 dilution in saline solution and a 1:20 dilution in RPMI-1640 were tested (0.5–2.5 × 10^3 cells/mL). The negative control was the medium only without inoculum, and the positive control was the medium plus inoculum. The incubation time was 72 h at 30 °C at 110 rpm. The MIC values were determined by measuring the absorbance at 595 nm in a microplate reader and were defined as the lowest concentration of peptides capable of inhibiting growth equal to or higher than 50% in relation to the positive control. The MIC for fluconazole (FLC; 0.125–64 μg/mL; Pfizer, Brazil) was also determined according to M27-A3. The lowest concentration of the antifungal agent that was able to inhibit growth by 50% with respect to the positive control was considered the MIC.

[2] = system: C. neoformans var. grubii clinical isolate 2807; assay: microbe, parasite or virus in culture; type: cell-based, Cryptococcus neoformans var. grubii
Description: as §1

[3] = system: C. neoformans var. grubii H99; type: cell-based, Cryptococcus neoformans var. grubii; details: var. grubii H99, 74 h
Description: (§2) The minimal fungicidal concentration (MFC) was evaluated after the yeast’s exposure to the chimeras (1.6 to 100 μg/mL), as described above. […] The MFC was defined as the lowest peptide concentration at which ≤1 colony was visible on the agar plate.

[4] = system: C. neoformans var. grubii clinical isolate 2807; type: cell-based, Cryptococcus neoformans var. grubii; details: var. grubii clinical isolate 2807, 74 h
Description: as §2

[5] = system: C. neoformans 2807 clinical isolate; assay: microbe, parasite or virus in culture; type: cell-based, Cryptococcus neoformans var. grubii; details: 72 h; for MICa (MIC of the chimeric peptide alone): 2807 clinical isolate
Description: (§3) The combined effect of FLC with the chimeric peptides was evaluated for the reference strain and one clinical isolate. The amounts of 50 µL of the chimeric peptide and 50 µL of antifungal (FLC) were added to the plates at final concentrations of: 2xMIC, MIC, 1/2xMIC, 1/4xMIC, 1/6xMIC, and 1/8xMIC. A yeast cell suspension was added at 0.5–2.5 × 10^3 cells/mL in 96-well plates. It was incubated for 72 h with shaking at 110 rpm and at 30 °C.
(§4) The effect of the combination of the two drugs was determined by calculating the fractional inhibitory concentration index (∑FIC), which was calculated as follows: ∑FIC = (MICcombined/MICalone) FLC + (MICcombined/MICalone) peptide.
(§5) FIC values ≤0.5 was considered as synergistic effect, 0.5 < FIC < 1 an additive effect, 1 < FIC < 4 indifference, and FIC ≥ 4 an antagonistic effect.

C. neoformans H99 = assay: microbe, parasite or virus in culture; type: cell-based, Cryptococcus neoformans var. grubii; details: for MICa (MIC of the chimeric peptide alone): H99, 72 h
Description: as §3, §4, §5

[6] = system: L929 murine fibroblast cells; type: cell-based, mouse; details: 2 h
Description: The cell line used for this approach was the mouse fibroblast L929. The cells were washed with saline solution, trypsinized, and incubated for 5 min at 37 °C with a 5% CO2 atmosphere. The fibroblast cell suspension was prepared at a concentration of 1 × 10^6 cells in 7 mL of RPMI medium supplemented with fetal bovine serum (the number of cells needed for one plate) and dispensed into 96-well plates. Then, 70 µL of cells was added per well and incubated overnight at 37 °C and 5% CO2. Dilutions of each peptide chimera (3.125–200 µg/mL) were formulated, and 50 µL of each were added to the plate in quadruplicate and incubated for 2 h at 37 °C and 5% CO2. Control wells consisted of untreated cell cultures. In addition, 10 µL of MTT was added to each of the wells, and the plate was incubated for 4 h at 37 °C with a 5% CO2 atmosphere. Following that, the total volume of each well was withdrawn, 100 µL of DMSO was added, and it was incubated for 40 min at 37 °C with 5% CO2.
Plates were read with an iMark™ microplate reader (Bio-rad, Hercules, CA, USA) measuring the absorbance at 595 nm. Wells of untreated fibroblast cells were considered to be the negative control.

[7] = system: C. neoformans var. grubii strains; type: cell-based, Cryptococcus neoformans var. grubii; details: 72 h
Description: as §1

[8] = system: C. neoformans var. grubii strains; type: cell-based, Cryptococcus neoformans var. grubii; details: 74 h
Description: as §2

[9] = system: normal human T lymphocytes, fibroblasts, and endothelial cells; details: LfcinB at 200 μg/mL; cited from earlier work
Source text: One of the main concerns about the use of antimicrobial peptides in systemic treatments is their toxicity.

[10] = system: C. neoformans var. grubii clinical isolate 2643; assay: microbe, parasite or virus in culture; type: cell-based, Cryptococcus neoformans var. grubii
Description: as §1

[11] = system: C. neoformans var. grubii clinical isolate 3279; assay: microbe, parasite or virus in culture; type: cell-based, Cryptococcus neoformans var. grubii
Description: as §1

[12] = system: C. neoformans var. grubii mutant CNAG_00730; assay: MIC, broth microdilution (CLSI M27-A3); type: cell-based, Cryptococcus neoformans var. grubii; details: Cryptococcus neoformans, 72 h
Description: as §1

[13] = system: C. neoformans var. grubii mutant CNAG_01580; assay: MIC, broth microdilution (CLSI M27-A3); type: cell-based, Cryptococcus neoformans var. grubii; details: Cryptococcus neoformans, 72 h
Description: as §1

[14] = system: C. neoformans var. grubii mutant CNAG_02050; assay: MIC, broth microdilution (CLSI M27-A3); type: cell-based, Cryptococcus neoformans var. grubii; details: Cryptococcus neoformans, 72 h
Description: as §1

[15] = system: C. neoformans var. grubii mutant CNAG_02915; assay: MIC, broth microdilution (CLSI M27-A3); type: cell-based, Cryptococcus neoformans var. grubii; details: Cryptococcus neoformans, 72 h
Description: as §1

[16] = system: C. neoformans var. grubii mutant CNAG_04693; assay: MIC, broth microdilution (CLSI M27-A3); type: cell-based, Cryptococcus neoformans var. grubii; details: Cryptococcus neoformans, 72 h
Description: as §1

[17] = system: C. neoformans var. grubii mutant CNAG_04804; assay: MIC, broth microdilution (CLSI M27-A3); type: cell-based, Cryptococcus neoformans var. grubii; details: Cryptococcus neoformans, 72 h
Description: as §1

[18] = system: C. neoformans var. grubii mutant CNAG_05150; assay: MIC, broth microdilution (CLSI M27-A3); type: cell-based, Cryptococcus neoformans var. grubii; details: Cryptococcus neoformans, 72 h
Description: as §1

[19] = system: C. neoformans var. grubii mutant CNAG_06925; assay: MIC, broth microdilution (CLSI M27-A3); type: cell-based, Cryptococcus neoformans var. grubii; details: Cryptococcus neoformans, 72 h
Description: as §1

[20] = system: C. neoformans var. grubii H99; assay: Fluorescent staining for yeast viability (LIVE/DEAD, FUN1 and calcofluor white); type: cell-based, Cryptococcus neoformans var. grubii; details: 72 h
Description: Since the antifungal activity of the two chimeras was similar, it was decided to evaluate cell viability in the reference strain using one of the two chimeras by means of confocal microscopy. For this reason, the C6 chimera was evaluated in the H99 strain by staining with FUN1 and calcofluor white.
A commercial LIVE/DEAD™ yeast viability kit (Invitrogen, US) was used to analyze yeast viability after treatment with one of the chimeric peptides and FLC for 72 h at concentrations of 3.125, 6.25, 12.5, and 25 μg/mL and 4 and 8 μg/mL, respectively. In the dead control, the yeasts were treated with 5% hypochlorite for 10 min. Untreated yeast cells were used as a live control. Yeast cells were suspended in phosphate buffered saline (PBS). FUN-1 cell stains (10 μM) and calcofluor white (25 μM) were added to the yeast cell suspensions. After incubation in the dark at 30 °C for 30 min, the stained yeast was analyzed under a fluorescence microscope (Olympus FV1000) using filters set to excitation at approximately 488, 532, and 405 nm at 60× magnification. Fungal cell viability was determined by means of fluorescence analysis in at least 10 fields. Staining and interpretation of fluorescence were performed according to the manufacturer’s instructions.

[21] = system: mutants of C. neoformans var. grubii; assay: MIC, mutants (summary statements); type: cell-based, Cryptococcus neoformans var. grubii; details: all mutants
Description: as §1

[22] = var. grubii clinical isolate 2807, 72 h

MIC ([1]; var. grubii H99, 72 h): 114 µM
MIC [2, 22]: 114 µM
Molecule: KLLKKLLK [[K]-BFII (32–35)Pal]
MFC [3]: 114 µM
MFC [4]: 114 µM

Molecule: CC(C)C[C@H](NC(=O)[C@H](CC(C)C)NC(=O)[C@H](CCCNC(=N)N)NC(=O)[C@H](CCCNC(=N)N)NC(=O)[C@H](CC(C)C)NC(=O)[C@H](CC(C)C)NC(=O)[C@H](CCCNC(=N)N)NC(=O)CCCCCNC(=O)[C@H](CCCCN)NC(=O)[C@H](Cc1c[nH]c2ccccc12)NC(=O)[C@H](CCC(N)=O)NC(=O)[C@H](Cc1c[nH]c2ccccc12)NC(=O)[C@H](CCCCN)NC(=O)[C@@H](N)CCCCN)C(=O)N[C@@H](CCCNC(=N)N)C(N)=O [Chimera C6] (H-KKWQWK[Ahx]RLLRRLLR-NH2)
MICa (MIC of the chimeric peptide alone) [5]: 6.25 µg/mL
MICa (MIC of the chimeric peptide alone) (C. neoformans H99): 6.25 µg/mL
IC50 (fibroblast viability) [6]: 67.44 µg/mL (≈ 32.2 µM)
MIC [7]: 6.25 µg/mL (≈ 2.99 µM)
MFC [8]: 6.25 µg/mL (≈ 2.99 µM)

MIC ([1]; var. grubii H99, 72 h): 111 µM
MIC [2, 22]: 111 µM
Molecule: KKWQWK [[K]-LfcinB (20–25)]
MFC [3]: 111 µM
MFC [4]: 111 µM

Molecule: LfcinB: bovine lactoferricin, antimicrobial peptide (FKCRRWQWRMKKLGAPSITCVRRAF; ends and bridges not checked; cysteine pairing not given here; UniProt P24627 36-60, looked up)
toxicity for normal human cell cultures [9]: not toxic

MIC ([1]; var. grubii H99, 72 h): > 46 µM
MIC ([10]; var. grubii clinical isolate 2643, 72 h): > 46 µM
MIC [2, 22]: > 46 µM
MIC ([11]; var. grubii clinical isolate 3279, 72 h): > 46 µM
Molecule: RLLRRLLR [BFII (32–35)Pal]
MFC [3]: > 46 µM
MFC [4]: > 46 µM

Molecule: OC(Cn1cncn1)(Cn1cncn1)c1ccc(F)cc1F [FLC, fluconazole]
MIC ([1]; Cryptococcus neoformans, H99 reference strain, broth microdilution RPMI-1640, 72 h, 30 °C, ≥50% inhibition (A595), read-out: MIC): 4 µg/mL
susceptibility of the strain to FLC ([1]; H99 strain): sensitive
MIC ([10]; Cryptococcus neoformans, clinical isolate 2643, broth microdilution RPMI-1640, 72 h, 30 °C, ≥50% inhibition, read-out: MIC): 8 µg/mL
MIC ([2]; Cryptococcus neoformans, clinical isolate 2807, broth microdilution RPMI-1640, 72 h, 30 °C, ≥50% inhibition, read-out: MIC): 16 µg/mL
MIC ([11]; Cryptococcus neoformans, clinical isolate 3279, broth microdilution RPMI-1640, 72 h, 30 °C, ≥50% inhibition, read-out: MIC): 16 µg/mL
MIC [12]: 0.75 µg/mL (≈ 2.45 µM)
MIC [13]: 0.25 µg/mL (≈ 0.816 µM)
MIC [14]: 1 µg/mL (≈ 3.27 µM)
MIC [15]: 1.5 µg/mL (≈ 4.9 µM)
MIC [16]: 1 µg/mL (≈ 3.27 µM)
MIC [17]: 1 µg/mL (≈ 3.27 µM)
MIC [18]: 2 µg/mL (≈ 6.53 µM)
MIC [19]: 1 µg/mL (≈ 3.27 µM)
cell population versus live control ([20]; fluconazole 4 μg/mL (MIC)): a decrease in the cell population was observed
cell decrease ([20]; fluconazole 8 μg/mL): > 80%
MIC ([5]; Cryptococcus neoformans, clinical isolate 2807, checkerboard, 30 °C, 110 rpm, read-out: MICb (MIC of FLC alone)): 16 µg/mL
MIC (C. neoformans H99; Cryptococcus neoformans, H99, checkerboard, 72 h, 30 °C, 110 rpm, read-out: MICb (MIC of FLC alone)): 4 µg/mL
susceptibility of the strains to FLC [21]: sensitive

Molecule: CC(C)C[C@H](NC(=O)[C@H](CC(C)C)NC(=O)[C@H](CCCCN)NC(=O)[C@H](CCCCN)NC(=O)[C@H](CC(C)C)NC(=O)[C@H](CC(C)C)NC(=O)[C@H](CCCCN)NC(=O)CCCCCNC(=O)[C@H](CCCNC(=N)N)NC(=O)[C@H](Cc1c[nH]c2ccccc12)NC(=O)[C@H](CCC(N)=O)NC(=O)[C@H](Cc1c[nH]c2ccccc12)NC(=O)[C@H](CCCNC(=N)N)NC(=O)[C@@H](N)CCCNC(=N)N)C(=O)N[C@@H](CCCCN)C(N)=O [Chimera C5] (H-RRWQWR[Ahx]KLLKKLLK-NH2)
MICa (MIC of the chimeric peptide alone) [5]: 12.5 µg/mL
MICa (MIC of the chimeric peptide alone) (C. neoformans H99): 12.5 µg/mL
IC50 (fibroblast viability) [6]: 93.35 µg/mL (≈ 45.2 µM)
MIC [7]: 12.5 µg/mL (≈ 6.05 µM)
MFC [8]: 12.5 µg/mL (≈ 6.05 µM)

Reference: article PMC9774238, “In Vitro Antifungal Activity of Chimeric Peptides Derived from Bovine Lactoferricin and Buforin II against Cryptococcus neoformans var. grubii” (Antibiotics, 2022)
